The text below walks through data of patent US20070231375A1, “Liposome combination and the use thereof” (Taipei Medical University, priority 2006, published 2007).

The test system of one assay is A431 cells. Put plainly: MTT Assay-2 (A431). It counts as cell-based. As to conditions: 0.5 μg/ml Doxorubicin, no light. On the procedure:
A431 or CL1-5 cells (approx. 5000 cells) were seeded in each well of a 96-well plate and incubated in medium. After 24 hr of incubation, Doxorubicin (FD), Liposomal-Doxorubicin (LD) and Liposomal-Doxorubicin-Hematoporphyrin (LDH) was added into each well and drug concentration was set at 0.5 μg/ml Doxorubicin and 0.3 μg/ml Hp, After 2 hr, the cells of experiment group were illuminated for 10, 20, or 30 J/cm^2, and MTT assay was performed 72 hr later.

The next assay concerns CL1-0 cells. Put plainly: MTT Assay-2 (CL1-0). It counts as cell-based. As to conditions: 0.5 μg/ml Doxorubicin; no light.

For the molecule `COc1cccc2c1C(=O)c1c(O)c3c(c(O)c1C2=O)C[C@@](O)(C(=O)CO)C[C@@H]3O[C@H]1C[C@H](N)[C@H](O)[C@H](C)O1` [FD, Doxorubicin], in the assay with A431 cells, the “toxicity to cell A431 (in words)” value is “has toxicity to cell A431 significantly”. The “activity of mitochondia dehydrogenase (of control group)” value in the assay on A431 cells (A431, 0.3 μg/ml Hp, MTT 72 hr) is reported as “about 30%”. In addition, the “toxicity to cell CL1-0 (in words)” value in the assay on CL1-0 cells is reported as “has toxicity to cell CL1-0 significantly”.
